From PubChem BioAssay (NCI)
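Each compound was tested at five concentrations against cells in 96-well plates for 48 hours. GI50 is the concentration that inhibits growth by half. TGI marks complete inhibition of growth.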

Tests used:
Assay in all cases: NCI tumour cell line growth inhibition, 48 h; in the data active = GI50 below about 0.43 µM; inactive = the rest
U251 CNS = test system: U251 CNS
RPMI-8226 leukemia = test system: RPMI-8226 leukemia
NCI-H226 lung = test system: NCI-H226 lung
M14 melanoma = test system: M14 melanoma
SK-OV-3 ovarian = test system: SK-OV-3 ovarian
SK-MEL-28 melanoma = test system: SK-MEL-28 melanoma
SNB-75 CNS = test system: SNB-75 CNS
OVCAR-5 ovarian = test system: OVCAR-5 ovarian
HOP-92 NSCLC = test system: HOP-92 NSCLC
MDA-MB-435 = test system: MDA-MB-435

c1ccc(Nc2nc(-c3ccccn3)cs2)nc1
> 100 µM: TGI (SK-OV-3 ovarian) | TGI (SK-MEL-28 melanoma) | TGI (SNB-75 CNS) | TGI (OVCAR-5 ovarian)
> 53.5 µM: TGI (MDA-MB-435)
> 56.5 µM: TGI (HOP-92 NSCLC)
> 43.2 µM: TGI (U251 CNS)
> 63.1 µM: TGI (NCI-H226 lung)
76.2 µM: TGI (RPMI-8226 leukemia)
active: GI50 (U251 CNS) 0.332 µM | GI50 (M14 melanoma) 0.258 µM
inactive: GI50 (RPMI-8226 leukemia) 0.548 µM | GI50 (NCI-H226 lung) 1 µM | GI50 (SK-OV-3 ovarian) 0.74 µM | GI50 (SK-MEL-28 melanoma) 1.5 µM | GI50 (SNB-75 CNS) 3.03 µM | GI50 (OVCAR-5 ovarian) 2.35 µM | GI50 (HOP-92 NSCLC) 2.49 µM | GI50 (MDA-MB-435) 0.689 µM

O=C(c1ccco1)c1c(C(F)(F)F)nc2ccc(C(F)(F)F)cc2[n+]1[O-]
49.2 µM: TGI (HOP-92 NSCLC)
80.6 µM: TGI (SK-MEL-28 melanoma)
inactive: GI50 (U251 CNS) 25.9 µM | GI50 (RPMI-8226 leukemia) > 100 µM | GI50 (NCI-H226 lung) 32.1 µM | GI50 (M14 melanoma) 35.8 µM | GI50 (SK-OV-3 ovarian) 35 µM | GI50 (SK-MEL-28 melanoma) 25.2 µM | GI50 (SNB-75 CNS) 16.9 µM | GI50 (OVCAR-5 ovarian) 46.9 µM | GI50 (HOP-92 NSCLC) 21 µM | GI50 (MDA-MB-435) > 81.6 µM
> 100 µM: TGI (RPMI-8226 leukemia) | TGI (NCI-H226 lung) | TGI (M14 melanoma) | TGI (SK-OV-3 ovarian) | TGI (OVCAR-5 ovarian) | TGI (MDA-MB-435)
36.4 µM: TGI (SNB-75 CNS)
61.5 µM: TGI (U251 CNS)

Clc1cc2c(nn1)Nc1ccccc1S2
> 100 µM: TGI (U251 CNS) | TGI (RPMI-8226 leukemia) | TGI (NCI-H226 lung) | TGI (M14 melanoma) | TGI (SK-OV-3 ovarian) | TGI (SK-MEL-28 melanoma) | TGI (SNB-75 CNS) | TGI (OVCAR-5 ovarian) | TGI (HOP-92 NSCLC) | TGI (MDA-MB-435)
inactive: GI50 (U251 CNS) > 100 µM | GI50 (RPMI-8226 leukemia) > 100 µM | GI50 (NCI-H226 lung) > 100 µM | GI50 (M14 melanoma) > 100 µM | GI50 (SK-OV-3 ovarian) > 100 µM | GI50 (SK-MEL-28 melanoma) > 100 µM | GI50 (SNB-75 CNS) > 100 µM | GI50 (OVCAR-5 ovarian) > 100 µM | GI50 (HOP-92 NSCLC) > 100 µM | GI50 (MDA-MB-435) > 100 µM

Cc1cccc2nc3cccc(C(=O)NCCNCCNCCNC(=O)c4cccc5nc6cccc(C)c6nc45)c3nc12
0.769 µM: TGI (RPMI-8226 leukemia)
12.8 µM: TGI (SK-OV-3 ovarian)
1.44 µM: TGI (SNB-75 CNS)
1.04 µM: TGI (U251 CNS)
0.519 µM: TGI (HOP-92 NSCLC)
1.41 µM: TGI (MDA-MB-435)
11.1 µM: TGI (OVCAR-5 ovarian)
0.274 µM: TGI (NCI-H226 lung)
4.37 µM: TGI (SK-MEL-28 melanoma)
active: GI50 (U251 CNS) < 0.01 µM | GI50 (RPMI-8226 leukemia) < 0.01 µM | GI50 (NCI-H226 lung) < 0.0128 µM | GI50 (M14 melanoma) < 0.0241 µM | GI50 (SK-OV-3 ovarian) 0.0933 µM | GI50 (SK-MEL-28 melanoma) 0.101 µM | GI50 (SNB-75 CNS) 0.181 µM | GI50 (OVCAR-5 ovarian) 0.12 µM | GI50 (HOP-92 NSCLC) < 0.0317 µM | GI50 (MDA-MB-435) < 0.01 µM
1.7 µM: TGI (M14 melanoma)

CSCC[C@H](NC(=O)[C@H](CC(C)C)NC(=O)[C@@H](Cc1ccccc1)NC(=O)CNC(=O)[C@@H](NC(=O)[C@H](C)NC(=O)[C@H](Cc1c[nH]c2ccccc12)NC(=O)[C@H](CCC(N)=O)NC(=O)[C@H](N)CC(N)=O)C(C)C)C(N)=O
> 12.5 µM: TGI (U251 CNS) | TGI (RPMI-8226 leukemia) | TGI (NCI-H226 lung) | TGI (M14 melanoma) | TGI (SK-OV-3 ovarian) | TGI (SK-MEL-28 melanoma) | TGI (SNB-75 CNS) | TGI (OVCAR-5 ovarian) | TGI (HOP-92 NSCLC) | TGI (MDA-MB-435)

N#Cc1ccsc1NC(=O)COC(=O)c1cccc(S(=O)(=O)N2CCc3ccccc32)c1
inactive: GI50 (U251 CNS) 11.2 µM | GI50 (RPMI-8226 leukemia) 17.4 µM | GI50 (NCI-H226 lung) > 100 µM | GI50 (SK-OV-3 ovarian) > 100 µM | GI50 (SK-MEL-28 melanoma) 22.4 µM | GI50 (SNB-75 CNS) 29.9 µM | GI50 (OVCAR-5 ovarian) 35.2 µM | GI50 (HOP-92 NSCLC) 40.1 µM | GI50 (MDA-MB-435) 41.4 µM
> 100 µM: TGI (U251 CNS) | TGI (RPMI-8226 leukemia) | TGI (NCI-H226 lung) | TGI (SK-OV-3 ovarian) | TGI (SK-MEL-28 melanoma) | TGI (SNB-75 CNS) | TGI (OVCAR-5 ovarian) | TGI (HOP-92 NSCLC) | TGI (MDA-MB-435)

CC(C)(CCN=C(N)Nc1ccccn1)c1ccc(C(F)(F)F)cc1
26.7 µM: TGI (RPMI-8226 leukemia)
29.6 µM: TGI (M14 melanoma)
30.6 µM: TGI (SK-MEL-28 melanoma)
33.8 µM: TGI (SNB-75 CNS)
inactive: GI50 (U251 CNS) 16.4 µM | GI50 (RPMI-8226 leukemia) 6.58 µM | GI50 (NCI-H226 lung) 13.6 µM | GI50 (M14 melanoma) 14 µM | GI50 (SK-OV-3 ovarian) 15.8 µM | GI50 (SK-MEL-28 melanoma) 15.8 µM | GI50 (SNB-75 CNS) 12.9 µM | GI50 (OVCAR-5 ovarian) 15.8 µM | GI50 (HOP-92 NSCLC) 13.3 µM | GI50 (MDA-MB-435) 15.1 µM
30.4 µM: TGI (U251 CNS)
29 µM: TGI (MDA-MB-435)
31.7 µM: TGI (NCI-H226 lung)
30.8 µM: TGI (SK-OV-3 ovarian)
27.6 µM: TGI (HOP-92 NSCLC)
30.7 µM: TGI (OVCAR-5 ovarian)
